Reference: patent US8895568B2, “Compositions comprising substituted pteridines as agrochemicals” (Dow AgroSciences LLC, priority 2009, dated 2014)

Assays:
Type in all cases: in vivo
Leptosphaeria nodorum = test: Glume Blotch of Wheat (LEPTNO), foliar spray, percent disease control; conditions: Parastagonospora nodorum, tested at 75 ppm
Procedure: The activity of the compounds as effective fungicides was determined by applying the compounds to plants and observing control of fungal disease. The compounds were formulated at 200 ppm in 10 vol. % acetone plus 90 vol. % Triton X water (deionized water 99.99 wt %+0.01 wt % Triton X100), giving a “formulated test compound.” In a few cases, compounds were formulated at 75 or 8.3 ppm rather than 200 ppm in 10 vol. % acetone plus 90 vol. % Triton X water (deionized water 99.99 wt. %+0.01 wt. % Triton X100), giving a “formulated test compound.” Formulated test compounds were applied to plants using a turn table sprayer fitted with two opposing air atomization nozzles which delivered approximately 1500 L/ha of spray volume. All plants were inoculated with spores of the fungus the day after treatment, then incubated in an environment conducive to disease development. Disease severity was evaluated 4 to 15 days later, depending on the disease and the speed of disease development. The following experiments were performed in the laboratory to determine the fungicidal efficacy of the compounds of the invention. […] Each pot contained 3-20 seedlings. These plants were sprayed until wet with the formulated test compound. On the following day, the leaves were inoculated with an aqueous spore suspension of Leptosphaeria nodorum and the plants were kept in high humidity (one day in a dark dew chamber followed by four days in a lighted dew chamber) to permit spores to germinate and infect the leaf. The plants were then transferred to a greenhouse until disease developed on untreated control plants. […] The effectiveness of the test compounds at controlling disease when sprayed on leaves was determined by assessing the severity of disease on treated plants, then converting the severity to percent control based on the level of disease on untreated, inoculated plants. Data are the level (in percent) at which the given disease was controlled when the given compound was applied to the foliage of the plants at 200 ppm. In a few cases (noted in the table) the compound was applied to the plants at 75 ppm or 8.3 ppm.

Magnaporthe grisea = test: whole plant or invertebrate; conditions: Pyricularia oryzae, foliar, read-out: PYRIOR percent control
[1] = test system: Puccinia recondita tritici; test: Leaf Rust of Wheat (PUCCRT), foliar spray, percent disease control; conditions: tested at 8.3 ppm
Procedure: The activity of the compounds as effective fungicides was determined by applying the compounds to plants and observing control of fungal disease. The compounds were formulated at 200 ppm in 10 vol. % acetone plus 90 vol. % Triton X water (deionized water 99.99 wt %+0.01 wt % Triton X100), giving a “formulated test compound.” In a few cases, compounds were formulated at 75 or 8.3 ppm rather than 200 ppm in 10 vol. % acetone plus 90 vol. % Triton X water (deionized water 99.99 wt. %+0.01 wt. % Triton X100), giving a “formulated test compound.” Formulated test compounds were applied to plants using a turn table sprayer fitted with two opposing air atomization nozzles which delivered approximately 1500 L/ha of spray volume. All plants were inoculated with spores of the fungus the day after treatment, then incubated in an environment conducive to disease development. Disease severity was evaluated 4 to 15 days later, depending on the disease and the speed of disease development. The following experiments were performed in the laboratory to determine the fungicidal efficacy of the compounds of the invention. […] Each pot contained 3-8 seedlings. These plants were sprayed until wet with the formulated test compounds. On the following day, the leaves were inoculated with an aqueous spore suspension of Puccinia recondita tritici and the plants were kept in high humidity overnight to permit spores to germinate and infect the leaf. The plants were then transferred to a greenhouse until disease developed on untreated control plants. […] The effectiveness of the test compounds at controlling disease when sprayed on leaves was determined by assessing the severity of disease on treated plants, then converting the severity to percent control based on the level of disease on untreated, inoculated plants. Data are the level (in percent) at which the given disease was controlled when the given compound was applied to the foliage of the plants at 200 ppm. In a few cases (noted in the table) the compound was applied to the plants at 75 ppm or 8.3 ppm.

[2] = test system: DROSME, AEDSAE, LAPHEG, or HELIVI; test: Insecticidal activity, active if any of DROSME, AEDSAE, LAPHEG or HELIVI was controlled at 80% or more; conditions: read-out: >80% mortality on any insect species @ 4000 ppm
[3] = test system: Pseudoperonospora cubensis; test: Cucumber Downy Mildew (PSPECU), foliar spray, percent disease control; conditions: foliar spray, read-out: PSPECU percent control
Cochliobolus sativus = test: Spot Blotch of Wheat (COCHSA), foliar spray, percent disease control; conditions: Bipolaris sorokiniana; foliar spray; read-out: COCHSA percent control
Colletotricum lagenarium = test: Cucumber Anthracnose (COLLLA), foliar spray, percent disease control; conditions: foliar spray

Structure (SMILES) | pest or weed control at 75 ppm (Leptosphaeria nodorum) [%] | pest or weed control at 8.3 ppm (Magnaporthe grisea) [%] | pest or weed control at 8.3 ppm [1] [%] | pest or weed control at 4000 ppm [2] [%] | pest or weed control at 200 µg/mL [3] [%] | pest or weed control at 200 µg/mL (Cochliobolus sativus) [%] | pest or weed control at 200 µg/mL (Colletotricum lagenarium) [%]
Clc1csc(Oc2ccc(CCNc3ncnc4nccnc34)cc2)n1 [Compound 31] | 0 to 49 | 80 to 100 | 50 to 79 |  |  |  | 
FC(F)(F)c1cnc2nc(Oc3ccc(CCNc4ncnc5nccnc45)cc3)sc2c1 [Compound 32] | 0 to 49 | 50 to 79 | 50 to 79 |  |  |  | 
COc1ccc(CCNc2ncnc3nccnc23)cc1 [Compound 45] | 0 to 49 | 80 to 100 | 50 to 79 |  |  |  | 
N#Cc1c(Cl)cncc1Oc1cccc(CCNc2ncnc3nccnc23)c1 [Compound 70] | 0 to 49 | 50 to 79 | 50 to 79 |  |  |  | 
Cc1ccnc(Cl)c1Oc1ccc(CCNc2ncnc3nccnc23)cc1 [Compound 98] | 0 to 49 | 50 to 79 | 50 to 79 |  |  |  | 
Cc1ccnc(Oc2ccc(CCNc3ncnc4nccnc34)cc2)c1F [Compound 99] | 50 to 79 | 80 to 100 | 80 to 100 |  |  |  | 
Fc1cc(Oc2ccc(C(F)(F)F)cn2)ccc1CCNc1ncnc2nccnc12 [Compound 105] | 80 to 100 | 80 to 100 | 80 to 100 |  |  |  | 
COc1ccc2c(c1)CC(Nc1ncnc3ncc(C)nc13)C2 (stereo not shown) [Compound 116] | 0 to 49 | 50 to 79 | 0 to 49 | > 80 |  |  | 
Fc1cnc(C(F)(F)F)c(F)c1Oc1ccc(CCNc2ncnc3ncc(Cl)nc23)cc1 [Compound 117] | 50 to 79 | 80 to 100 | 50 to 79 | > 80 |  |  | 
CC(C)(C)OC(=O)c1ccc(Oc2ccc(CCNc3ncnc4nccnc34)cc2)cc1 [Compound 154] | 80 to 100 | 80 to 100 | 80 to 100 |  |  |  | 
FC(F)(F)c1ccnc(Oc2ccc(CCOc3ncnc4nccnc34)cc2)c1 [Compound 206, 4-{2-[4-(4-Trifluoromethylpyridin-2-yloxy)-phenyl]-ethoxy}-pteridine] | 0 to 49 |  | 0 to 49 |  |  |  | 
Cc1nc(NCCc2ccc(Oc3cc(C(F)(F)F)ccn3)cc2)c2nc(C)c(C)nc2n1 [Compound 215] |  |  |  | > 80 | 80 to 100 | 0 to 49 | 0 to 49
Fc1cccc(Oc2ccc(CCNc3ncnc4nccnc34)cc2)c1C(F)(F)F [Compound 216] |  |  |  | > 80 | 80 to 100 | 0 to 49 | 0 to 49
Cc1nc(NCCc2ccc(Oc3cc(C(F)(F)F)ccn3)cc2)c2nc(C)c(C)nc2n1 [Compound 226] | 0 to 49 | 0 to 49 | 0 to 49 |  |  |  | 
FC(F)(F)c1ccnc(Oc2ccc(CCNc3ncnc4nccnc34)cc2C(F)(F)F)c1 [Compound 227] | 80 to 100 |  | 80 to 100 |  |  |  | 
CC1=CSc2cc(CCNc3ncnc4nccnc34)ccc2O1 [Compound 231] |  |  |  | > 80 | 0 to 49 | 0 to 49 | 0 to 49
FC(F)(F)COc1ccc(CCNc2ncnc3nccnc23)cn1 [Compound 232] |  |  |  | > 80 | 80 to 100 | 0 to 49 | 50 to 79
